Starred links: 1 amine or outer side, 2 acyl side, 3 side chain; linkers in the order of their positions; H or OH if unused. Residues, ends and D or L forms follow the SMILES beside them. Groups on a side chain read outwards from the residue. *: point of attachment. Glutaryl = O=C(CCCC(=O)[*:2])[*:1]; NHNH2 = NN*

What all share (type): cell-based
Assay [1] relates to ARPE19 cells expressing EGFP. Briefly: Cas9-RNP delivery against EGFP (gene editing, plate reader), ARPE19. The method, then: (§1) To generate an EGFP expressing HeLa cell line, HeLa cells were transfected with EGFP pDNA (pEGFP-C1, Clontech) and stable transfectants were selected with 400 μg/mL of G-418 (Millipore). Green clones were selected by epifluorescence microscopy and tested for EGFP expression stability through several passages. […] All other EGFP-expressing cell lines were obtained in a similar way from parent non-EGFP-expressing cell lines.
(§2) Cells expressing EGFP were seeded in a 96 well plate the day before the experiment at a concentration of 50,000 cell/mL (100 μL/w) in DMEM+10% FBS+1% Gln-Abt. For robotic library screening, the delivery of Cas9-RNP against EGFP (RNP designed to knock-out the gene encoding for the enhanced green fluorescent protein (EGFP)) was performed. For RNP assembly, 9.2 μL of crRNA and 9.2 μL of tracrRNA were mixed in 211.6 μL of Nuclease-Free Duplex Buffer (IDT), incubated for 5 min at 95° C. and slowly cooled at rt (see I. Lostalé-Seijo, et al. Peptide/Cas9 nanostructures for ribonucleoprotein cell membrane transport and gene edition, Chem. Sci., 2017). Cas9 protein was dissolved in DMEM at a final concentration of 4 μM and equal volumes of the RNA complex and Cas9 were mixed and incubated for 5 min at rt. 75 μL of the corresponding amphiphile concentrations were added to 5 μL of RNP at 2 μM. The mixture was shaken for 30 min at room temperature before the addition to the cells. The cell medium was aspirated, and cells were washed twice with PBS. Cells were covered with 30 μL of DMEM and 20 μL of the RNP/amphiphile complexes were added to the cells (final peptide concentrations=2.5, 5 and 10 μM; final Cas9-RNP concentration=50 nM) and incubated for 4 h. After the incubation, the medium was replaced by 100 μL of fresh DMEM supplemented with 10% FBS. The total EGFP fluorescence was quantified after 72 h in a plate reader (FIG. 2, Table 1 (right) and Table 6). All experiments were done in triplicate. […]
(§3) Tables 26-31 show the mean (triplicates) percentage of gene editing, accounted by GFP fluorescence intensity decrease (% of reduction), measured after the transfection of Cas9-RNP by different amphiphiles at different concentrations in a variety of cell lines. Background values, accounted by untreated control cells, were subtracted for processing.

The subject of assay [2] is HCT116 cells expressing EGFP. In words: Cas9-RNP delivery against EGFP (gene editing, plate reader), HCT116. On the procedure: as §1, §2, §3
Assay [3] deals with Hela cells expressing EGFP. Briefly: Cas9-RNP delivery against EGFP (gene editing, plate reader), HeLa. The note with it: for % GFP silencing due to gene editing (Cas9-RNP): HeLa. On the procedure: as §1
Cells expressing EGFP were seeded in a 96 well plate the day before the experiment at a concentration of 50,000 cell/mL (100 μL/w) in DMEM+10% FBS+1% Gln-Abt. For robotic library screening, the delivery of Cas9-RNP against EGFP (RNP designed to knock-out the gene encoding for the enhanced green fluorescent protein (EGFP)) was performed. For RNP assembly, 9.2 μL of crRNA and 9.2 μL of tracrRNA were mixed in 211.6 μL of Nuclease-Free Duplex Buffer (IDT), incubated for 5 min at 95° C. and slowly cooled at rt (see I. Lostalé-Seijo, et al. Peptide/Cas9 nanostructures for ribonucleoprotein cell membrane transport and gene edition, Chem. Sci., 2017). Cas9 protein was dissolved in DMEM at a final concentration of 4 μM and equal volumes of the RNA complex and Cas9 were mixed and incubated for 5 min at rt. 75 μL of the corresponding amphiphile concentrations were added to 5 μL of RNP at 2 μM. The mixture was shaken for 30 min at room temperature before the addition to the cells. The cell medium was aspirated, and cells were washed twice with PBS. Cells were covered with 30 μL of DMEM and 20 μL of the RNP/amphiphile complexes were added to the cells (final peptide concentrations=2.5, 5 and 10 μM; final Cas9-RNP concentration=50 nM) and incubated for 4 h. After the incubation, the medium was replaced by 100 μL of fresh DMEM supplemented with 10% FBS. The total EGFP fluorescence was quantified after 72 h in a plate reader (FIG. 2, Table 1 (right) and Table 6). All experiments were done in triplicate.
Tables 1-7: RLuc (pDNA) or EGFP (mRNA) expression levels were normalized to Lipofectamine reagents (value=1) and expressed as fold-times signal increase. In the case of siRNA, the siRNA treated cells fluorescence was compared with siMOCK control fluorescence, while Cas9-RNP mediated knockout was measured against the fluorescence of untreated cells. In both siRNA and Cas9-RNP, values are expressed as % fluorescence reduction. Amphiphile concentration was 5 μM in all cases. All experiments were performed in triplicate.
as §3

[4] abbreviates: Petroselinyl, 10 μM, Hela cells.

Regarding `CC(=O)N[C@@H](CCCNC(=N)N)C(=O)N[C@@H](CCCCNC(=O)CCCC(=O)NN)C(=O)N[C@@H](Cc1c[nH]cn1)C(=O)N[C@@H](CCCNC(=N)N)C(=O)N[C@@H](CCCCNC(=O)CCCC(=O)NN)C(=O)N[C@@H](CCCCNC(=O)CCCC(=O)NN)C(=O)N[C@@H](Cc1c[nH]cn1)C(N)=O` [7.3(L-H), Ac-RK*HRK*K*H-NH2] (Ac-RK([Glutaryl-NHNH2])HRK([Glutaryl-NHNH2])K([Glutaryl-NHNH2])H-NH2), the “percentage of gene editing, GFP fluorescence intensity decrease (% of reduction)” value in assay [1] (Myristoleyl, 5 μM) was 19%; in assay [1] (Myristoleyl, 15 μM) it was 12%; in assay [1] (Oleyl, 5 μM) it was 1%; in assay [1] (Oleyl, 10 μM), 6%; in assay [1] (Oleyl, 15 μM), 15%; in assay [1] (Palmitoleyl, 5 μM), 37%. Also, the “percentage of gene editing, GFP fluorescence intensity decrease (% of reduction)” value in assay [1] (Palmitoleyl, 10 μM) was 31%; in assay [1] (Petroselinyl, 5 μM) it was 18%; in assay [2] (Dodecanal, 15 μM) it was 3%; in assay [2] (Myristoleyl, 15 μM), 26%; in assay [2] (Oleyl, 5 μM), −5%; in assay [2] (Oleyl, 10 μM), 5%. The “percentage of gene editing, GFP fluorescence intensity decrease (% of reduction)” value in assay [2] (Palmitoleyl, 5 μM) is given as 28%; in assay [2] (Palmitoleyl, 10 μM), 22%; in assay [3] (Dodecanal, 10 μM, HeLa cells), −8%; in assay [3] (Dodecanal, 15 μM, Hela cells), −21%; in assay [3] (Myristoleyl, 5 μM, HeLa cells) it was 39%; in assay [3] (Myristoleyl, 10 μM, HeLa cells) it was 22%. Besides, the “percentage of gene editing, GFP fluorescence intensity decrease (% of reduction)” value in assay [3] (Myristoleyl, 15 μM, Hela cells) is recorded as 18%; in assay [3] (Oleyl, 5 μM, HeLa cells), 16%; in assay [3] (Oleyl, 10 μM, HeLa cells), 13%; in assay [3] (Oleyl, 15 μM, Hela cells), 22%; in assay [3] (Palmitoleyl, 5 μM, HeLa cells), 55%; in assay [3] (Palmitoleyl, 10 μM, HeLa cells), 28%. The “percentage of gene editing, GFP fluorescence intensity decrease (% of reduction)” value was 17% in assay [3] (Palmitoleyl, 15 μM, Hela cells); 46% in assay [3] (Petroselinyl, 5 μM, HeLa cells); 14% in assay [3] (setting [4]).
Regarding “Ac-RHLK*RHK*RRLK*RH-NH2 (Ac-RHLKRHKRRLKRH-NH2; not fully specified (residues 4, 7, 11); printed as Ac-RHLK*RHK*RRLK*RH-NH2; also: linker on K* not given here) [13(3His)]”, the “percentage of gene editing, GFP fluorescence intensity decrease (% of reduction)” value was 34% in assay [1] (Petroselinyl, 15 μM); −33% in assay [2] (Dodecanal, 5 μM); 0% in assay [2] (Myristoleyl, 15 μM); −9% in assay [2] (Palmitoleyl, 5 μM); 14% in assay [2] (Palmitoleyl, 15 μM); 26% in assay [2] (Petroselinyl, 5 μM). Moreover, the “percentage of gene editing, GFP fluorescence intensity decrease (% of reduction)” value in assay [3] (Myristoleyl, 5 μM, HeLa cells) was found to be 18%.
With “Ac-RHLK*RLK*RRLK*RL-NH2 (Ac-RHLKRLKRRLKRL-NH2; not fully specified (residues 4, 7, 11); printed as Ac-RHLK*RLK*RRLK*RL-NH2; also: linker on K* not given here) [13(Arg-His)]”, the “percentage of gene editing, GFP fluorescence intensity decrease (% of reduction)” value in assay [1] (Dodecanal, 5 μM) was 25%; in assay [1] (Dodecanal, 15 μM), 21%; in assay [1] (Myristoleyl, 10 μM), 15%; in assay [1] (Myristoleyl, 15 μM), 9%; in assay [1] (Oleyl, 5 μM), 14%; in assay [1] (Oleyl, 10 μM) it was −6%. Moreover, the “percentage of gene editing, GFP fluorescence intensity decrease (% of reduction)” value is on record as 25% in assay [1] (Palmitoleyl, 5 μM); −12% in assay [1] (Palmitoleyl, 10 μM); 20% in assay [1] (Palmitoleyl, 15 μM); 15% in assay [1] (Petroselinyl, 15 μM); 4% in assay [2] (Dodecanal, 5 μM); 5% in assay [2] (Dodecanal, 10 μM). Also, the “percentage of gene editing, GFP fluorescence intensity decrease (% of reduction)” value in assay [2] (Dodecanal, 15 μM) is reported as 16%; in assay [2] (Myristoleyl, 5 μM), −7%; in assay [2] (Myristoleyl, 15 μM), 29%; in assay [2] (Oleyl, 5 μM), 5%; in assay [2] (Palmitoleyl, 5 μM), 30%; in assay [2] (Palmitoleyl, 10 μM), 22%. In addition, the “percentage of gene editing, GFP fluorescence intensity decrease (% of reduction)” value was determined as 9% in assay [2] (Palmitoleyl, 15 μM); 6% in assay [2] (Petroselinyl, 10 μM); 37% in assay [3] (Dodecanal, 5 μM, Hela cells); 78% in assay [3] (Dodecanal, 10 μM, HeLa cells); 48% in assay [3] (Myristoleyl, 5 μM, HeLa cells); 85% in assay [3] (Myristoleyl, 10 μM, HeLa cells). In addition, the “percentage of gene editing, GFP fluorescence intensity decrease (% of reduction)” value in assay [3] (Oleyl, 5 μM, HeLa cells) was 46%; in assay [3] (Oleyl, 10 μM, HeLa cells), 73%; in assay [3] (Palmitoleyl, 5 μM, HeLa cells) it was 48%; in assay [3] (Palmitoleyl, 10 μM, HeLa cells), 73%; in assay [3] (Palmitoleyl, 15 μM, Hela cells), 78%; in assay [3] (Petroselinyl, 5 μM, HeLa cells) it was 23%. The “percentage of gene editing, GFP fluorescence intensity decrease (% of reduction)” value in assay [3] (setting [4]) is given as 69%; in assay [3] (Petroselinyl, 15 μM, Hela cells), 80%. Moreover, the “% GFP silencing due to gene editing (Cas9-RNP)” value in assay [3] (5 μM, Ole tail) came to 73%; in assay [3] (5 μM, Pal tail), 73%.
